In ChEMBL document CHEMBL2311472, “Discovery and optimization of potent broad-spectrum arenavirus inhibitors derived from benzimidazole and related heterocycles” (Bioorg Med Chem Lett, 2013):

Legend:
[1] = system: Guanarito virus; test: Antiviral activity against Guanarito virus; format: functional; conditions: Mammarenavirus guanaritoense
[2] = system: Junin virus; test: Antiviral activity against Junin virus; format: functional, organism-based; conditions: Mammarenavirus juninense
[3] = system: Sabia virus; test: Antiviral activity against Sabia virus; format: functional
[4] = system: Machupo mammarenavirus; test: Antiviral activity against Machupo virus; format: functional; conditions: Mammarenavirus machupoense
[5] = system: Lassa virus; test: Antiviral activity against Lassa virus by pseudo-type antiviral assay; format: functional, organism-based; conditions: Mammarenavirus lassaense

Row | Structure (SMILES) | EC50 [5] [µM] | other results
1 | COc1ccc(-n2cnc3cc(NCc4ccc(C(C)C)cc4)ccc32)cc1 | 0.0014 | EC50 [1]: 0.00044 µM; EC50 [2]: 0.00062 µM; EC50 [3]: 0.021 µM; EC50 [4]: 0.0031 µM
2 | CCOc1ccc(-n2c(N)nc3cc(NCc4ccc(CC)cc4)ccc32)cc1 | 0.029 | –
3 | CCOc1ccc(-n2c(O)nc3cc(NCc4ccc(CC)cc4)ccc32)cc1 | 1.8 | –
4 | CCOc1ccc(-n2cnc3cc(NCc4ccc(CC)cc4)cc(C(=O)OC)c32)cc1 | 0.22 | –
5 | CCOc1ccc(-n2cnc3cc(NCc4ccc(CC)cc4)cc(C(=O)O)c32)cc1 | > 50 | –
6 | CCOc1ccc(-n2cnc3cc(NCc4ccc(CC)cc4)cc(N)c32)cc1 | 0.62 | –
7 | CCOc1ccc(-n2cnc3cc(NCCc4ccc(CC)cc4)cnc32)cc1 | 0.065 | –
8 | CCOc1ccc(-n2cnc3cc(NCCCc4ccc(CC)cc4)cnc32)cc1 | 0.21 | –
9 | CCOc1ccc(-n2cnc3cc(/N=C/c4ccc(CC)cc4)cnc32)cc1 | 4.3 | –
10 | CCOc1ccc(Cn2cnc3cc(NCc4ccc(CC)cc4)cnc32)cc1 | 1.6 | –
11 | CCc1ccc(CNc2cnc3c(c2)ncn3-c2ccc(O)cc2)cc1 | 0.019 | –
12 | CCc1ccc(CNc2cnc3c(c2)ncn3-c2ccc(OCCCO)cc2)cc1 | 0.013 | –
13 | CCc1ccc(CNc2cnc3c(c2)ncn3-c2ccc(OCCN(C)C)cc2)cc1 | 0.08 | –
14 | CCc1ccc(CNc2cnc3c(c2)ncn3-c2ccc(NC(C)=O)cc2)cc1 | 0.011 | –
15 | CCOc1ccc(-n2cnc3cc(NCc4ccc(CC)cc4)cnc32)cc1N(C)C | 0.25 | –
16 | CCOc1ccc(-n2cnc3cc(NCc4ccc(CC)cc4)cnc32)c(CN)c1 | 1.5 | –
17 | CCOc1ccc(-n2cnc3cc(NCc4ccc(CC)cc4)cnc32)cc1CN | 0.058 | –
18 | CCOc1ccc(-n2cnc3cc(NCc4ccc(CC)c(N(C)C)c4)cnc32)cc1 | 0.0059 | –
19 | CCOc1ccc(-n2cnc3cc(NCc4ccc(CC)c(CN)c4)cnc32)cc1 | 0.026 | –

Row | Structure (SMILES) | EC50 [5] [µM] | other results
20 | CCOc1ccc(-n2cnc3cc(NCc4ccc(CC)cc4)ccc32)cc1 | 0.0015 | –
21 | CCOc1ccc(-n2c(C)nc3cc(NCc4ccc(CC)cc4)ccc32)cc1 | 0.0019 | –
22 | CCCc1nc2cc(NCc3ccc(CC)cc3)ccc2n1-c1ccc(OCC)cc1 | 0.17 | –
23 | CCOc1ccc(-n2c(C#N)nc3cc(NCc4ccc(CC)cc4)ccc32)cc1 | 0.0016 | –
24 | CCOc1ccc(-n2c(C(=O)O)nc3cc(NCc4ccc(CC)cc4)ccc32)cc1 | 0.0015 | –
25 | CCOc1ccc(-n2c(C(N)=O)nc3cc(NCc4ccc(CC)cc4)ccc32)cc1 | 0.0092 | –
26 | CCOc1ccc(-n2ccc3cc(NCc4ccc(CC)cc4)ccc32)cc1 | 0.069 | –
27 | CCOc1ccc(-c2c[nH]c3cc(NCc4ccc(CC)cc4)ccc23)cc1 | 0.013 | EC50 [2]: 0.012 µM; EC50 [3]: 0.0039 µM; EC50 [4]: 0.04 µM
28 | COc1ccc(-n2ncc3cc(NCc4ccc(C(C)C)cc4)ccc32)cc1 | 0.13 | –
29 | CCOc1ccc(-n2nnc3cc(NCc4ccc(CC)cc4)ccc32)cc1 | 0.0061 | –
30 | CCOc1ccc(-c2cnc3cc(NCc4ccc(CC)cc4)ccn23)cc1 | 0.0093 | –
31 | CCOc1ccc(-n2ccc3cc(NCc4ccc(CC)cc4)cnc32)cc1 | 0.025 | –
32 | CCOc1ccc(-n2cnc3nc(NCc4ccc(CC)cc4)ccc32)cc1 | 0.0068 | –
33 | CCOc1ccc(-n2cnc3cc(NCc4ccc(CC)cc4)cnc32)cc1 | 0.00016 | EC50 [1]: 0.0035 µM; EC50 [2]: 0.0079 µM; EC50 [3]: 0.054 µM; EC50 [4]: 0.028 µM
34 | CCOc1ccc(-n2nnc3cc(NCc4ccc(CC)cc4)cnc32)cc1 | 0.00087 | EC50 [1]: 0.0077 µM; EC50 [2]: 0.014 µM; EC50 [3]: 0.093 µM; EC50 [4]: 0.081 µM
35 | CCOc1ccc(-n2c(C(N)=O)nc3cc(NCc4ccc(CC)cc4)cnc32)cc1 | 0.0044 | –
36 | CCOc1ccc(-n2c(C(=O)O)nc3cc(NCc4ccc(CC)cc4)cnc32)cc1 | 0.00016 | –
37 | CCOc1ccc(-n2cnc3cc(NCc4ccc(CC)cc4)cnc32)cn1 | 0.009 | –
38 | CCOc1ccc(-n2cnc3cc(NCc4ccc(CC)cc4)cnc32)nc1 | 0.00098 | –
